# Data reported in patent publication US20240400584A1, “COMPOUNDS AND METHODS FOR MODULATING SPLICING” (REMIX THERAPEUTICS INC., priority 2021, published 2024).
# How the values were obtained:
# MYB [1] = assay: RT-qPCR splicing assay, MYB AJ/CJ mRNA; assay type: cell-based; conditions: Homo sapiens, A673 or K562 cells, 24 hours; for IC50: decrease in canonical junction mRNA; for AC50: increase in alternative junction mRNA
# Description: (§1) Compounds described herein were used to modulate RNA transcript abundance in cells. The expression of a target mRNA was measured by detecting the formation of an exon-exon junction in the canonical transcript (CJ). A compound mediated exon-inclusion event was detected by observing an increase in formation OF A new junction with an alternative exon (AJ). Real-time qPCR assays were used to detect these splicing switches and interrogate the potency of various compounds towards different target Genes. A high-throughput real time quantitative PCR (RT-qPCR) assay was developed to measure these two isoforms of the mRNA (CJ and AJ) for exemplary genes, such as HTT, SMN2, and MYB, together with a control housekeeping gene, GAPDH or GUSB or PPIA, used for normalization. Briefly, the A673 or K562 cell line was treated with various compounds described herein (e.g., compounds of Formula (i)). After treatment, the levels of the HTT, MYB, or SMN2 mRNA targets were determined from each sample of cell lysate by cDNA synthesis followed by qPCR.
# (§2) The A673 cell line was cultured in DMEM with 10% FBS. Cells were diluted with full growth media and plated in a 96-well plate (15,000 cells in 100 ul media per well). The plate was incubated at 37° C. with 5% CO2 for 24 hours to allow cells to adhere. An 11-point 3-fold serial dilution of the compounds was made in DMSO then diluted in media in an intermediate plate. Compounds were transferred from the intermediate plate to the cell plate with the top dose at a final concentration of 10 uM in the well. Final DMSO concentration was kept at or below 0.25%. The cell plate was returned to the incubator at 37° C. with 5% CO2 for an additional 24 hours.
# (§3) The K562 cell line was cultured in IMDM with 10% FBS. For K562, cells were diluted with full growth media and plated in either a 96-well plate (50,000 cells in 50 uL media per well) or a 384-well plate (8,000-40,000 cells in 45 uL media per well). An 11-point 3-fold serial dilution of the compounds were made in DMSO then diluted in media in an intermediate plate. Compound was transferred from the intermediate plate to the cell plate with the top dose at a final concentration of 10 uM in the well. Final DMSO concentration was kept at or below 0.25%. Final volume was 100 uL for 96-well plate and 50 uL for 384-well plate. The cell plate was then placed in an incubator at 37° C. with 5% CO2 for 24 hours.
# (§4) The cells were then gently washed with 50 uL-100 uL Cold Pbs before proceeding to addition of lysis buffer. 30 uL-50 μL of room temperature lysis buffer with DNAse I (and optionally RNAsin) was added to each well. Cells were shaken/mixed thoroughly at room temperature for 5-10 minutes for lysis to take place and then 3 uL-5 μL of room temperature stop solution was added and wells were shaken/mixed again. After 2-5 minutes, the cell lysate plate was transferred to ice for RT-qPCR reaction setup. The lysates could also be frozen at −80° C. for later use.
# (§5) In some cases, a direct lysis buffer was used. an appropriate volume of 3× lysis buffer (10 mM tRis, 150 mM NaCl, 1.5%-2.5% Igepal and 0.1-1 U/uL RNAsin, pH 7.4) was directly added to either K562 or A673 cells in media and mixed by pipetting 3 times. The plates were then incubated at room temperature with shaking/rocking for 20-50 minutes to allow for lysis to take place. After this time, the cell lysate plate was transferred to ice to set up for the RT-qPCR reactions. The lysates could also be frozen at −80° C. for later use.
# (§6) To set up 10 uL RT-QpcR reactions, cell lysates were transferred to 384-well qPCR plates containing the master mix according to the table below. The plates were sealed, gently vortexed, and spun down before the run. The volumes were adjusted accordingly in some instances where the reaction was carried in 20 µL. The table below summarizes the components of the RT-qPCR reactions:
# (§7) The RT-qPCR reaction was performed using a QuantStudio (ThermoFisher) under the following fast cycling conditions. […]
# MYB [2] = assay: Gene panel canonical junction qPCR assay, MYB CJ mRNA (Table 7); assay type: cell-based; conditions: Homo sapiens, read-out: MYB CJ mRNA decrease IC50
# Description: as §1
# (§8) The data analysis was performed by first determining the ΔCt vs the housekeeper gene. This ΔCt was then normalized against the DMSO control (ΔΔCt) and converted to RQ (relative quantification) using the 2^(−ΔΔCt) equation. The RQ were then converted to a percentage response by arbitrarily setting an assay window of 3.5 and 4.0 ΔCt for HTT-CJ and MYB-CJ respectively and an assay window of 9 and 3 ΔCt for HTT-AJ and MYB-AJ in 96 well format (50,000 K562 cells/well and 15,000 A673 cells per well) and an assay window of 3 and 4 ΔCt for HTT-CJ and MYB-CJ respectively and an assay window of 5 and 3 ΔCt for HTT-AJ and MYB-AJ respectively in 384 well format (8,000 K562 cells/well example). […] The percentage response was then fitted to the 4 parametric logistic equation to evaluate the concentration dependence of compound treatment. The increase in AJ mRNA is reported as AC50 (compound concentration having 50% response in AJ increase) while the decrease in CJ mRNA levels is reported as IC50 (compound concentration having 50% response in CJ decrease).
# (§9) Additional studies were carried out for a larger panel of genes using the protocol provided above. The junction between flanking upstream and downstream exons was used to design canonical junction qPCR assays. At least one of the forward primer, reverse primer or the CY5-labeled 5′ nuclease probe (with 3′ quencher such as ZEN/Iowa Black FQ) was designed to overlap with the exon junction to capture the CJ mRNA transcript. BLAST was used to confirm the specificity of the probeset and parameters such as melting temperature, GC content, amplicon size, and primer dimer formation are considered during their design. Data for the decrease in CJ mRNA levels for four exemplary genes (HTT, SMN2, MYB, and Target C) analyzed in this panel are reported as IC50 (compound concentration having 50% response in CJ decrease).
# HTT [3] = assay: RT-qPCR splicing assay, HTT AJ/CJ mRNA; assay type: cell-based, human; conditions: Homo sapiens, A673 or K562 cells; for IC50: decrease in canonical junction mRNA; for AC50: increase in alternative junction mRNA
# Description: as §1, §2, §3, §4, §5, §6, §7
# SMN2 = assay: Gene panel canonical junction qPCR assay, SMN2 CJ mRNA (Table 7); assay type: cell-based; conditions: Homo sapiens, read-out: SMN2 CJ mRNA decrease IC50
# Description: as §1, §8, §9
# Target C = assay: Gene panel canonical junction qPCR assay, Target C CJ mRNA (Table 7); assay type: cell-based, human; conditions: Homo sapiens, read-out: Target C CJ mRNA decrease IC50
# Description: as §1, §8, §9
# HTT [4] = assay: Gene panel canonical junction qPCR assay, HTT CJ mRNA (Table 7); assay type: cell-based, human; conditions: Homo sapiens, read-out: HTT CJ mRNA decrease IC50
# Description: as §1, §8, §9
Compound,IC50 (MYB [1]) [nM],AC50 (MYB [1]) [nM],IC50 (MYB [2]) [nM],IC50 (HTT [3]; 24 h) [nM],AC50 (HTT [3]; 24 h) [nM],IC50 (SMN2) [nM],IC50 (Target C) [nM],IC50 (HTT [4]) [nM],IC50 (HTT [3]; 24 hours) [nM],AC50 (HTT [3]; 24 hours) [nM]
COc1cc(-c2ccc3c(c2)COc2nc(N4CCC(C)(NC(C)C)C4)ccc2-3)cnn1 (stereo not drawn) [Compound 309],100 to 1000,100 to 1000,100 to 1000,< 100,< 100,< 100,100 to 1000,< 100,,
"Cc1cc(-c2ccc3c(c2)COc2nc(N4CC[C@@H](NC(C)(C)C)C4)ccc2-3)cnn1 (single isomer, unassigned) [Compound 274, N-tert-butyl-1-[8-(6-methylpyridazin-4-yl)-6H-isochromeno[3,4-b]379yrrolid-3-yl]379yrrolidine-3-amine]",> 10000,> 10000,> 10000,1000 to 10000,> 10000,100 to 1000,> 10000,1000 to 10000,,
"CC(C)(C)N[C@@H]1CCN(c2ccc3c(n2)OCc2cc(-c4cn[nH]c4)ccc2-3)C1 [Compound 257, (3R)—N-tert-butyl-1-[8-(1H-pyrazol-4-yl)-6H-isochromeno[3,4-b]pyridin-3-yl]pyrrolidin-3-amine]",100 to 1000,100 to 1000,100 to 1000,< 100,< 100,< 100,< 100,< 100,,
O=c1cc(-c2ccc3c(c2)COc2nc(OC4CC5CC(F)(F)C(C4)N5)ccc2-3)cc[nH]1 (stereo not drawn) [Compound 229],> 10000,> 10000,> 10000,,,> 10000,> 10000,> 10000,> 10000,> 10000
c1cnn(-c2ccc3c(c2)COc2nc(O[C@@H]4C[C@H]5CC[C@@H](C4)N5)ccc2-3)c1 [Compound 188],1000 to 10000,1000 to 10000,1000 to 10000,100 to 1000,100 to 1000,100 to 1000,1000 to 10000,100 to 1000,,
"CCc1cc(-c2ccc3c(c2)COc2nc(N4CCC(NC(C)(C)C)C4)ccc2-3)cnn1 (stereo not drawn) [Compound 284, N-tert-butyl-1-[8-(6-ethylpyridazin-4-yl)-6H-isochromeno[3,4-b]pyridin-3-yl]pyrrolidin-3-amine]",> 10000,> 10000,> 10000,> 10000,> 10000,1000 to 10000,> 10000,> 10000,,
c1cnn(-c2ccc3c(c2)COc2nc(N4C[C@H]5CNC[C@H]5C4)ccc2-3)c1 [Compound 185],> 10000,1000 to 10000,> 10000,> 10000,> 10000,1000 to 10000,> 10000,> 10000,,
CCN(c1ccc2c(n1)OCc1cc(-n3cccn3)ccc1-2)C1CCNCC1 [Compound 177],> 10000,> 10000,> 10000,> 10000,> 10000,> 10000,> 10000,> 10000,,
c1cnn(-c2ccc3c(c2)COc2nc(OC4CCNCC4)ccc2-3)c1 [Compound 187],> 10000,> 10000,> 10000,1000 to 10000,> 10000,1000 to 10000,> 10000,1000 to 10000,,
CN(c1ccc2c(n1)OCc1cc(-n3cccn3)ccc1-2)[C@@H]1C[C@H]2CCC[C@@H](C1)N2 [Compound 178],100 to 1000,< 100,100 to 1000,< 100,< 100,< 100,100 to 1000,< 100,,
c1cnn(-c2ccc3c(c2)COc2nc(NC4CCNCC4)ccc2-3)c1 [Compound 174],> 10000,> 10000,> 10000,> 10000,> 10000,1000 to 10000,> 10000,> 10000,,
"FC1(F)CC2CC(Nc3ccc4c(n3)OCc3cc(-n5nccn5)ccc3-4)CC1N2 (stereo not drawn) [Compound 238, 6,6-difluoro-N-[8-(1,2,3-triazol-2-yl)-6H-isochromeno[3,4-b]pyridin-3-yl]-8-azabicyclo[3.2.1]octan-3-amine]",1000 to 10000,1000 to 10000,1000 to 10000,100 to 1000,1000 to 10000,1000 to 10000,1000 to 10000,100 to 1000,,
"COc1cc(-c2ccc3c(c2)COc2nc(N(C)[C@@H]4C[C@H]5COC[C@@H](C4)N5)ccc2-3)cnn1 [Compound 232, (1R,5S,7r)-N-[8-(6-methoxypyridazin-4-yl)-6H-isochromeno[3,4-b]pyridin-3-yl]-N-methyl-3-oxa-9-azabicyclo[3.3.1]nonan-7-amine]",100 to 1000,< 100,100 to 1000,< 100,< 100,< 100,< 100,< 100,,
CN(c1ccc2c(n1)OCc1cc(-n3cc(N)cn3)ccc1-2)[C@@H]1C[C@H]2CC[C@@H](C1)N2 [Compound 172],100 to 1000,100 to 1000,100 to 1000,100 to 1000,100 to 1000,< 100,100 to 1000,100 to 1000,,
"FC1(F)CC2CC(Oc3ccc4c(n3)OCc3cc(-c5cn[nH]c5)ccc3-4)CC1N2 (stereo not drawn) [Compound 224, 6,6-difluoro-3-{[8-(1H-pyrazol-4-yl)-6H-isochromeno[3,4-b]pyridin-3-yl]oxy}-8-azabicyclo[3.2.1]octane]",> 10000,> 10000,> 10000,1000 to 10000,1000 to 10000,1000 to 10000,> 10000,1000 to 10000,,
